{
  "source": "paper PMC7407672",
  "about": "(Cells, 2020)",
  "key": {"LS174T-hPXR cells": {"tested_on": "LS174T-hPXR cells", "test": "MTT proliferation of LS174T-hPXR cells", "assay_type": "cell-based, human", "experimental": "We developed a new proliferation test that we called the P-screen to measure the effects of compounds with PXR activity on the growth of LS174T-hPXR cells. This test uses the same principle as that for E-screen that was used for measuring the effects of estrogens on the proliferation of MCF-7 breast cancer cells. […] The medium was then removed, and cells were treated with increasing concentrations of the different compounds for 7 days. Medium was removed, and 0.1 mL of MTT solution (0.5 mg/mL) was added to each well. The MTT-containing medium was removed 4 h after incubation, and DMSO was added to each well. After shaking, the plates were read in absorbance at 540 nm. Results were expressed as percentage of proliferation with respect to the hormone-free control (100%). Data were obtained by dose–response curves plotted as percentage of proliferation as a function of concentrations."}, "GAL4(DBD)-mouse PXR(LBD)": {"biological_target": "T1, GAL4(DBD)-mouse PXR(LBD) (Mus musculus, UniProt O54915)", "T1 construct": "together with the pSG5-GAL4(DBD)-h/m/zfPXR(LBD)-puro plasmids; expressed in transfected cells; host or cells: HeLa (HG5LN)", "T1 sequence (O54915 143-430 limits assumed)": "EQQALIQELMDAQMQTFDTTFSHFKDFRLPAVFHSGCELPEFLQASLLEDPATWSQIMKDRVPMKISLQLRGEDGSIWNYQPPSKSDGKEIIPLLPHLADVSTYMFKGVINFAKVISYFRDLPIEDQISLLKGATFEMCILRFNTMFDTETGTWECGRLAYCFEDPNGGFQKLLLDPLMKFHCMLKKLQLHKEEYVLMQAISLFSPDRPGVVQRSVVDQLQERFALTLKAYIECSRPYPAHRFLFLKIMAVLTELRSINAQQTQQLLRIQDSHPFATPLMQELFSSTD", "test": "luciferase reporter transactivation in HG5LN GAL4-mPXR cells", "assay_type": "cell-based", "conditions": "dabrafenib, SR12813, PCN 3 μM; clotrimazol 1 μM", "description": "The different reporter cell lines used in this study are summarized in Supplementary Table S1. HG5LN GAL4-m/zfPXR cells were obtained as previously reported for HG5LN GAL4-hPXR cells. Briefly, Hela cells were stably transfected with the GAL4RE5-βGlob-Luc-SVNeo plasmid alone or together with the pSG5-GAL4(DBD)-h/m/zfPXR(LBD)-puro plasmids leading to the HG5LN and HG5LN-h/m/zfPXR cell lines, respectively. HG5LN GAL4-hCAR and GAL4-hCAR-APYLT cells were obtained in the same way."}},
  "data": [
    {"compound": "SPA70", "values": [
      {"measurement": "effect on agonist-activated proliferation", "setting": "LS174T-hPXR cells; SPA70 3 μM with 0.3 μM SR12813 or 0.3 μM dabrafenib", "value": "abrogated"},
      {"measurement": "effect on basal proliferation", "setting": "LS174T-hPXR cells; SPA70 3 μM, 7 days", "value": "significantly reduced"}
    ]},
    {"compound": "CC(=O)[C@H]1[C@H](C#N)C[C@H]2[C@@H]3CC=C4C[C@@H](O)CC[C@]4(C)[C@H]3CC[C@@]21C", "note": "[PCN, Pregnenolone 16 alpha-carbonitrile]", "values": [
      {"measurement": "activation of mouse PXR LBD (luciferase)", "setting": "GAL4(DBD)-mouse PXR(LBD)", "value": "Specific agonist effects"}
    ]}
  ]
}
